In patent US7521478B2, “Total synthesis of myriaporones” (Pharma Mar, S.A.U., priority 2002, dated 2009):

Assays:
Type in all cases: cell-based
SK-MEL-28 = experiment: Inhibition of cell growth by colorimetric SRB assay, MEL-28; conditions: Homo sapiens
Summary of the method: (§1)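 Absorbance of solubilized bound SRB (490 nm) quantified cell growth and viability after cells were exposed to compound for 48 h. Seeding was 5×10^3 cells per well in RPMI 1640/10% FBS, with 18 h attachment beforehand. GI, TGI and LC were calculated from means of triplicate wells.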

LNCaP = experiment: Inhibition of cell growth by colorimetric SRB assay, LN-caP; conditions: Homo sapiens
Summary of the method: as §1

IGROV = experiment: Inhibition of cell growth by colorimetric SRB assay, IGROV; conditions: Homo sapiens
Summary of the method: as §1

HT-29 = experiment: Inhibition of cell growth by colorimetric SRB assay, HT-29; conditions: Homo sapiens
Summary of the method: as §1

LoVo = experiment: Inhibition of cell growth by colorimetric SRB assay, LOVO; conditions: Homo sapiens
Summary of the method: as §1

A-549 = experiment: Inhibition of cell growth by colorimetric SRB assay, A-549; conditions: Homo sapiens
Summary of the method: as §1

LoVo-Dox = experiment: Inhibition of cell growth by colorimetric SRB assay, LOVO-DOX; conditions: Homo sapiens
Summary of the method: as §1

SK-BR-3 = experiment: Inhibition of cell growth by colorimetric SRB assay, SK-BR-3
Summary of the method: as §1

HeLa-APL = experiment: Inhibition of cell growth by colorimetric SRB assay, HELA-APL; conditions: Homo sapiens, 48 h
Summary of the method: as §1

DU-145 = experiment: Inhibition of cell growth by colorimetric SRB assay, DU-145; conditions: Homo sapiens
Summary of the method: as §1

HeLa = experiment: Inhibition of cell growth by colorimetric SRB assay, HELA; conditions: Homo sapiens
Summary of the method: as §1

PANC-1 = experiment: Inhibition of cell growth by colorimetric SRB assay, PANC-1; conditions: Homo sapiens
Summary of the method: as §1

K-562 = experiment: Inhibition of cell growth by colorimetric SRB assay, K-562; conditions: Homo sapiens
Summary of the method: as §1

IGROV-ET = experiment: Inhibition of cell growth by colorimetric SRB assay, IGROV-ET; conditions: Homo sapiens
Summary of the method: as §1

C=C(C(=O)[C@H](COC(C)=O)[C@H](O)C1(C)O[C@@H]1[C@@H](C)/C=C\C)[C@@H](O)CC(=O)CC (some centres unmarked) [Compound 1]
CC50 (SK-MEL-28; SK-MEL-28, 48 h, read-out: LC50): 13.6 µM
GI50 (SK-MEL-28; SK-MEL-28, MEL-28, 48 hours exposure): 2.72 µM
IC (total growth inhibition) (SK-MEL-28; SK-MEL-28, MEL-28, 48 hours exposure, total growth inhibition, read-out: TGI): 6.1 µM
CC50 (LNCaP; 48 h, read-out: LC50): ≥ 25.2 µM
GI50 (LNCaP; LN-caP, 48 hours exposure): 1.45 µM
IC (total growth inhibition) (LNCaP; LN-caP, 48 hours exposure, total growth inhibition, read-out: TGI): 6.31 µM
CC50 (IGROV; 48 h, read-out: LC50): 17.6 µM
GI50 (IGROV; 48 hours exposure): 1.63 µM
IC (total growth inhibition) (IGROV; 48 hours exposure, total growth inhibition, read-out: TGI): 5.67 µM
CC50 (HT-29; HT-29, 48 h, read-out: LC50): 13.4 µM
GI50 (HT-29; HT-29, 48 hours exposure): 1.67 µM
IC (total growth inhibition) (HT-29; HT-29, 48 hours exposure, total growth inhibition, read-out: TGI): 5.37 µM
LC50 (LoVo; LoVo, 48 h, read-out: LC50): 12.6 µM
GI50 (LoVo; LOVO, 48 hours exposure): 1.62 µM
IC (total growth inhibition) (LoVo; LOVO, 48 hours exposure, total growth inhibition, read-out: TGI): 4.87 µM
CC50 (A-549; A549, 48 h, read-out: LC50): 23.5 µM
GI50 (A-549; A549, A-549, 48 hours exposure): 1.1 µM
IC (total growth inhibition) (A-549; A549, A-549, 48 hours exposure, total growth inhibition, read-out: TGI): 5.04 µM
LC50 (concentration for 50% cell killing) (LoVo-Dox; 48 h, read-out: LC50): 21.1 µM
GI50 (LoVo-Dox; LOVO-DOX, 48 hours exposure): 3.13 µM
IC (total growth inhibition) (LoVo-Dox; LOVO-DOX, 48 hours exposure, total growth inhibition, read-out: TGI): 8.1 µM
CC50 (SK-BR-3; Homo sapiens, SK-BR-3, 48 h, read-out: LC50): 3.43 µM
GI50 (SK-BR-3; Homo sapiens, SK-BR-3, 48 hours exposure): 0.469 µM
TGI (SK-BR-3; SK-BR-3, 48 hours exposure, total growth inhibition): 1.11E−05 Molar
GI50 (HeLa-APL): 1.72 µM
IC (total growth inhibition) (HeLa-APL; read-out: TGI): 6.23 µM
CC50 (DU-145; DU-145, 48 h, read-out: LC50): ≥ 25.2 µM
GI50 (DU-145; DU-145, 48 hours exposure): 3.66 µM
IC (total growth inhibition) (DU-145; DU-145, 48 hours exposure, total growth inhibition, read-out: TGI): 10.2 µM
CC50 (HeLa; HeLa, 48 h, read-out: LC50): 20.5 µM
GI50 (HeLa; HELA, 48 hours exposure): 1.99 µM
IC (total growth inhibition) (HeLa; HELA, 48 hours exposure, total growth inhibition, read-out: TGI): 6.66 µM
CC50 (PANC-1; PANC-1, 48 h, read-out: LC50): 21.3 µM
GI50 (PANC-1; PANC-1, 48 hours exposure): 3.33 µM
IC (total growth inhibition) (PANC-1; PANC-1, 48 hours exposure, total growth inhibition, read-out: TGI): 8.4 µM
CC50 (K-562; K562, 48 h, read-out: LC50): 24.6 µM
GI50 (K-562; K562, K-562, 48 hours exposure): 1.99 µM
IC (total growth inhibition) (K-562; K562, K-562, 48 hours exposure, total growth inhibition, read-out: TGI): 7.36 µM
CC50 (IGROV-ET; 48 h, read-out: LC50): 23.7 µM
GI50 (IGROV-ET; IGROV-ET, 48 hours exposure): 3.1 µM
IC (total growth inhibition) (IGROV-ET; IGROV-ET, 48 hours exposure, total growth inhibition, read-out: TGI): 8.58 µM
